The target in this experiment is T1, hPD-L1 (Homo sapiens, UniProt Q9NZQ7).
T1 construct: gene CD274; ectodomain (residues 18–239)
Nature of the experiment: SPR (Biacore X100, CM5 chip with immobilized hPD-L1, steady-state fit). Format: binding. (Surface plasmon resonance follows binding to a sensor surface in real time, without labels.)

Experimental findings from article PMC9964281, “Identification of CBPA as a New Inhibitor of PD-1/PD-L1 Interaction” (International Journal of Molecular Sciences, 2023) are described below.

T1 sequence (Q9NZQ7 18-239): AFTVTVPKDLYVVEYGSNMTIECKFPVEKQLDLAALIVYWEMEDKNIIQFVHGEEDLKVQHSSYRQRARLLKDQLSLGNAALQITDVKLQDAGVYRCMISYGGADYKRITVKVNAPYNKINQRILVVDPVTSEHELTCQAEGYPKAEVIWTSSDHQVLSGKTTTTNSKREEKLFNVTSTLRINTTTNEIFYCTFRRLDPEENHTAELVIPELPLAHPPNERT

The Kd is the equilibrium constant for the complex coming apart. A low value points to higher affinity. For the compound `Clc1ccc(COc2ccc(CNCc3ccncc3)cc2)cc1` [CBPA, N-{4-[(4-chlorobenzyl)oxy]benzyl}-N-(4-pyridinylmethyl)amine], the Kd came out at 48.1 µM.
